In patent US12629384B2, “Use of 8,9-dihydrocannabidiol compounds” (The Regents of the University of California, priority 2019, dated 2026):

Tests used:
[1] = test system: PTZ-induced generalised seizures; test: acute PTZ-induced generalised seizures in rat (antiseizure study); type: in vivo; settings: for maximum seizure severity, median (IQR) / percentage of animals that exhibited tonic-clonic seizures: 200 mg kg^-1 i.p. 1 h before PTZ 85 mg kg^-1; for maximum seizure severity, median (IQR): vehicle median 5, P<0.001 vs vehicle; for percentage of animals that exhibited tonic-clonic seizures: vs vehicle treated group, P<0.05
Protocol: Animals: Male, Wistar Han rats (70-110 g; Harlan, Bicester, UK) were housed on a 12 h light-dark cycle, with food and water available ad libitum. All experiments were conducted in accordance with the UK Animals (Scientific Procedures) Act, 1986 and ARRIVE guidelines for reporting experiments involving animals; 60 rats were used in total.
Drug administration: Animals were randomly divided into 5 groups of 12 animals per group and received either vehicle (ethanol, Cremophor EL and saline (0.9% w/v NaCl), 2:1:17), a positive control (cannabidiol; CBD; 200 mg kg^−1; Sigma-Aldrich, UK) or 8,9-dihydrocannabidiol (H2CBD; 50, 100 or 200 mg kg^−1) via i.p. injection 1 h prior to administration of the convulsant agent to achieve brain cannabinoid Tmax. The convulsant agent pentylenetetrazole (PTZ; 85 mg kg^−1 in 0.9% w/v NaCl) was administered i.p. 1 h after drug or vehicle treatment. Seizure activity was video recorded for 30 min and video records blinded before offline review and coding using a modified Racine scale (0, normal behaviour; 0.5, abnormal behaviour; 1, isolated myoclonic jerk; 2, atypical clonic seizure; 3, bilateral forelimb clonus; 3.5, bilateral forelimb clonus with body twist; 4, tonic-clonic seizure with suppressed tonic phase; 5, fully developed tonic-clonic seizure).
(§1) Statistics: Statistical procedures were performed using GraphPad Prism 7 (GraphPad Software, Inc., San Diego, CA, USA).
In the present study, 60 male, Wistar Han rats were randomly divided into 5 groups of 12 animals each and received either vehicle (ethanol, Cremophor EL, 0.9% w/v saline; 2:1:17), vehicle plus a positive control (CBD; 200 mg kg^−1), or vehicle plus H2CBD (50, 100, or 200 mg kg^−1) via intraperitoneal injection one hour prior to administration of the convulsant agent pentylenetetrazole (PTZ; 85 mg kg^−1 in 0.9% w/v saline).

[2] = blood and brain concentrations post-mortem by HPLC; type: in vivo, rat; settings: samples 90 minutes after administration
Protocol: Assessment of bioanalytes: Chemicals and reagents. 4,4-Dichlorodiphenyltrichloroethane (DDT, CAS: 50-29-3) was used as the internal analytical standard (IS). HPLC grade n-hexane, acetonitrile, water and ascorbic acid were purchased from Sigma Aldrich (UK) and Fisher Scientific.
Analysis of plasma and brain samples: Stock standard solutions of CBD, H2CBD and DDT were prepared in acetonitrile (5 mg/ml and 1 mg/mL) and stored at −20° C. until use. These were further diluted in acetonitrile:water (62:38), to achieve calibration concentrations of 0.1, 0.2, 0.5, 1.5, 10 μg/mL. Plasma samples were prepared for HPLC using a previously validated method. Briefly, DDT ([…]) was added to 150 μL of rat plasma sample as internal standard and plasma proteins were precipitated by the addition of 600 μL of ice cold acetonitrile followed by water (600 μL), with 1 min vortexing between additions. n-Hexane (3 mL) was added to each tube and following a 5 min vortex, tubes were centrifuged at 1160×g for 15 min at 10° C. and the upper organic layer was carefully decanted by glass pipette and retained. The organic layer was evaporated to dryness under a stream of nitrogen at room temperature and reconstituted in 150 μL of the mixture of acetonitrile and water (62:38) prior to HPLC analysis.
For brain analysis, brains were weighed and 1.5× ice-cold solvent (90% acetonitrile; 10% water; 0.1% ascorbic acid) (w/v) was added followed by homogenization for 1 min. DDT (50 μg/ml) was added to each homogenized brain tissue as internal standard, samples were mixed and allowed to equilibrate overnight at −20° C. Samples were then centrifuged at 3500 rpm for 15 min and the top layer retained. Samples were dried by SpeedVac concentrator at room temperature (Savant SPD131DDA, ThermoFisher Scientific, UK) and reconstituted in 150 μL of the mixture of acetonitrile and water (62:38) for HPLC analysis.
HPLC analysis: An Agilent 1200 series HPLC (Hewlett-Packard, Palo Alto, CA, USA) equipped with a photodiode array detector was used for analysis. 30 μl of all samples were injected and separation was achieved using an ACE C18-PFP 150 mm×4.6 mm, 3 μm particle size column (Hichrom Ltd., Reading, UK), protected by an ACE C18-PFP […] guard cartridge. The mobile phase was a mixture of acetonitrile and water in a ratio of 62:38 (v/v). The flow rate was set at 1 mL/min and column temperature was maintained at 55° C. The absorbance of all compounds of interest (CBD and DH-CBD) was monitored at 220 nm.
as §1

rodent behavior [3] = test: EPM test; type: in vivo, rat; settings: 200 mg kg^-1 i.p., 45 minutes post injection; drug vs vehicle; p=0.49
Protocol: (§2) 12 adult male Sprague Dawley rats were divided at random into two groups of 6 animals each and received either vehicle (Kolliphor RH-40, dmso, 0.9% w/v saline, 1:2:7) or vehicle plus H2CBD (200 mg kg^−1), administered by intraperitoneal injection. The vehicle differed in this case from the anti-seizure study to avoid the potentially confounding effect of alcohol. The number of animals was also limited to the lowest population necessary to establish an effect at the maximum dosage of drug. At 45 minutes post vehicle and drug injections, rats were placed in the center of the EPM and time spent on the open versus closed arms of the maze was recorded. After an interval of two weeks, the same 12 rats were again divided at random into two groups of 6 animals each and dosed as above. Spontaneous locomotor activity was measured 45 minutes after injection by placing the animals in the center of a 16″×16″ arena. Free movement was allowed for 30 minutes and recorded using an automated activity monitoring system.

[4] = in contrast to CBD; cited from earlier work
cytochrome P450 = settings: hepatic microsomal metabolism; consistent with CBD; cited from earlier work
murine macrophages = settings: consistent with CBD; cited from earlier work
rodent behavior [5] = test: open field test, spontaneous locomotor activity; type: in vivo, rat
Protocol: as §2

[6] = simulated gastric fluid, within one hour; cited from earlier work

Row | SMILES | maximum seizure severity, median (IQR) [1] | percentage of animals that exhibited tonic-clonic seizures [1] | anticonvulsant action ([1]; 50, 100, 200 mg kg^-1 i.p., maximal protective effect comparable to matching dose of CBD) | blood concentration vs vehicle treated group ([2]; 100 mg/kg i.p., P<0.05) | blood concentration vs vehicle treated group ([2]; 200 mg/kg i.p., P<0.01) | brain tissue concentration vs vehicle treated group ([2]; 200 mg/kg i.p., P<0.01) | percent time spent on the open arms (rodent behavior [3]) | sedative activity [4] | effect on cytochrome P450 (cytochrome P450) | antioxidant activity (murine macrophages) | horizontal distance traveled (rodent behavior [5]; 200 mg kg^-1 i.p., 30 min from 45 minutes after injection, drug vs vehicle, P=0.95) | time in the arena center (rodent behavior [5]; 200 mg kg^-1 i.p., 30 min from 45 minutes after injection, drug vs vehicle, p=0.14) | vertical activity (rodent behavior [5]; 200 mg kg^-1 i.p., 30 min from 45 minutes after injection, drug vs vehicle, p=0.25) | behavioral effects (EPM and open field overall) (rodent behavior [5]; high dosage, 200 mg kg^-1) | degradation mainly to Δ8- and Δ9-THCs [6]
1 | CCCCCc1cc(O)c([C@@H]2C=C(C)CC[C@H]2C(C)C)c(O)c1 (relative stereo) [Example H2CBD, 2-(6-Isopropyl-3-methylcyclohex-2-en-1-yl)-5-pentylbenzene-1,3-diol] | 2 (0.25-4.25 IQR) Racine scale | significantly fewer animals | dose-dependent anticonvulsant action | significant concentrations | significant concentrations | significant concentrations | No statistically significant differences | little if any evidence of sedative activity | inhibitory effect | antioxidant activity | no statistically significant differences | no statistically significant differences | no statistically significant differences | no measurable behavioral effects | 
2 | C=C(C)[C@@H]1CCC(C)=C[C@H]1c1c(O)cc(CCCCC)cc1O [CBD, cannabidiol] | 2 (0.25-3.75 IQR) Racine scale | significantly fewer animals |  |  |  | significant concentrations |  |  |  |  |  |  |  |  | nearly complete degradation
